Experimental data published in US9868707B2, “Small molecule agonists of neurotensin receptor 1” (SANFORD-BURNHAM MEDICAL RESEARCH INSTITUTE, priority 2012, dated 2018).
Like-named read-outs stand apart in the source and are kept apart here.

Legend:
[1] = PK in mouse after iv and ip dose; format: in vivo
[2] = Plasma protein binding, Rapid Equilibrium Device, human plasma; format: in vitro ADME; details: human plasma (EDTA), diluted 1:1 with PBS, pH 7.4, Human, read-out: Plasma Protein Binding (% Bound) (converted)
Experimental: (§1) The extent of compound bound to plasma proteins was measured using the Rapid Equilibrium Device (Pierce Thermo Scientific, Rockford Ill.). The base plate was rinsed with […] followed by 2× washes with ultrapure water and allowed to dry. Human and mouse plasma (BioChemed Services, Winchester Va.) collected in EDTA was allowed to thaw at room temperature and then warmed to 37° C., and diluted 1:1 (v:v) with 1×PBS, pH 7.4, prior to the assay. The compound (1.0 and 10.0 μM final) was added to the chamber containing 300 μl plasma:PBS. Next, 500 μl of dialysis buffer (1×PBS, pH7.4) was added to the buffer chambers of the inserts. The chambers were covered with sealing tape and incubated at 37° C. on an orbital shaker at 300× rpm for 4 hours. After the incubation time, a sample volume of 50 μl from the buffer side, representing the free concentration, and an equivalent sample volume from the plasma side, representing the total concentration, i.e. the free concentration+the concentration of drug bound to protein, were transferred from the dialysis cells to a 96 deep well plate for LCMS analysis. Results reported are the mean of each reaction duplicate, normalized to the internal standard, and expressed as a percent compound bound after the incubation time. The amount of compound in the supernatant was determined by LC/MS/MS and the percent of free and bound compounds were calculated with the following formulas: Percent of free parent compound=(amount of compound in receiver chamber/amount of compound in donor chamber)*100.

plasma proteins = assay: as above; format: in vitro ADME; details: species not stated
Experimental: as §1

[3] = Plasma stability, human plasma; format: in vitro ADME
Experimental: Plasma stability was determined using previously published methods (Kerns, E. H., and Di, L. 2008. Drug-like Properties: Concepts, Structure Design and Methods. Oxford UK: Elsevier). Compound (1.0 μM) was incubated at 37° C. in human or mouse plasma (from blood of healthy donors collected on EDTA) diluted to 50% (v/v) with pH 7.4 isotonic phosphate buffer. At time 0 min and 180 min, aliquots were collected, added to acetonitrile to quench the reaction and precipitate plasma proteins. These samples were centrifuged and the supernatant analyzed by the LC/MS/MS method described above for the presence of the parental compound.

[4] = system: adrenergic receptors (α1a, α1B, α1D, α2A); assay: Panlabs panel, adrenergic receptors; format: binding; details: @ 10 μM
Description: However, these activities in in vitro binding assays may not translate into functional modulation of these receptors.

[5] = Brain levels in mouse after ip dosing; format: in vivo
[6] = Aqueous solubility, direct UV kinetic solubility method; format: physicochemical
Experimental: The aqueous solubility of the compound was determined using a direct UV kinetic solubility method (Avdeef, A. 2001. Physicochemical profiling (solubility, permeability and charge state). Curr Top Med Chem 1:277-351) in a 96-well format at pH 5.0, 6.2 and 7.4. Compounds (250 μM) were incubated for 18.0h at room temperature to achieve equilibrium, and then filtered to remove any precipitate. The concentration of the compound in solution was measured by UV absorbance (250-498 nm) and compared to the spectra of precipitation-free reference solutions. Spectroscopically pure 1-Propanol (Sigma, St Louis, Mo.) was used as a cosolvent to suppress precipitation in the reference solutions. The solubility of each compound was determined using μSOL Evolution Plus software v3.2 (pION Inc) and is expressed as the concentration (μg/mL) of a solute in a saturated solution

NTR1 = NTR1 (Homo sapiens, UniProt P30989); assay: NTR1 Ca2+ Flux dose response (ChanTest, CHO); format: cell-based; design: host or cells: CHO; details: profiled by ChanTest
Chain of NTR1 (P30989 whole entry): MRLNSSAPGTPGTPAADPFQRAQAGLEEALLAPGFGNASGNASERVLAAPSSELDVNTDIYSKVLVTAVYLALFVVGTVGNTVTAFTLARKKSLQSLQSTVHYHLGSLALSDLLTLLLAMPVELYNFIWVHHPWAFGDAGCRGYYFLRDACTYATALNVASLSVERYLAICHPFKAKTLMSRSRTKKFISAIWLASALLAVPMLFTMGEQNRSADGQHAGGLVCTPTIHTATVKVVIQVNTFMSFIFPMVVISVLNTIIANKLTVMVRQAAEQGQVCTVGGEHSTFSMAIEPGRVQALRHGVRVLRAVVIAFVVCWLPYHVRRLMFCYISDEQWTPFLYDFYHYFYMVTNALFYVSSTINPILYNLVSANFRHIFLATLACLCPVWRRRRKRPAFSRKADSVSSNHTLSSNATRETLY
Experimental: The NTR1 Ca^2+ Flux assay was performed by ChanTest (Rockville, Md.). The assay used a CHO cell line, provided by ChanTest, which stably expressed the NTR1 receptor. The cells were grown and plated in Ham's F12 (11765) that was supplemented with fetal bovine serum (10437). Both were supplied by Gibco/Life Technologies (Carlsbad, Calif.). The DPBS (21-031CV) used in the assay was obtained from Cellgro/Mediatech and the G418 (ant-gn-1) was supplied by Invivogen. The Fluo-4 NW Dye (Invitrogen F36206) used to detect calcium mobilization was sourced by Invitrogen. […]
NTSR1 (NTR1) CHO cells are plated in 20 uL of assay media containing Ham's F12 supplemented with 10% fetal bovine serum and 0.4 mg/mL G418 at a concentration of 1.0×10^6 cells per mL into black, 384-well assay plates with clear bottoms using a Multidrop liquid handler. […] Following the incubation in the presence of dye, the assay is run on a Molecular Devices FlexStation-III using 494 excitation and 516 emission wavelengths set to read for 90 seconds with the addition at 18 seconds of 5 uL of 6× final concentration of test compounds and peptide control diluted in assay media containing 0.1% BSA and no more than 9% DMSO to yield a maximum final DMSO concentration of 1.5%. Percent activation is calculated based on the maximum response minus the minimum value over the time course relative to the neurotensin 1 control peptide at 100 pM. […]

Compound `COc1cc2nc(C3CC3)nc(N3CCN(c4ccccc4OC)CC3)c2cc1OC` [Compound 315, 2-cyclopropyl-6,7-dimethoxy-4-(4-(2-methoxyphenyl)piperazin-1-yl)quinazoline] has a Vdss ([1]; 2 mg/kg iv dose) of 6.22 L/kg, a t1/2 ([1]; 2 mg/kg iv dose) of 1.93 h and an AUC ([1]; 10 mg/kg ip dose) of 1223 ng·h/mL. For the same compound, the Cmax ([1]; 10 mg/kg ip dose) was 763 ng/mL, the t1/2 ([1]; 10 mg/kg ip dose) was 2.58 h and the “PK properties in mouse” value ([1]; in vivo) was “modest PK properties”. For the same compound, the fraction unbound at 4 h, 1 μM ([2]; 1 μM) was 0.0055, the fraction unbound at 4 h, 10 μM ([2]; 10 μM) was 0.0078 and the “plasma protein binding” value (plasma proteins) was “highly plasma protein bound”. The “Plasma Stability (% Remaining at 3 hrs)” value ([3]; Human) was 100%, the “plasma stability” value ([3]; species not stated) was “very high plasma stability” and the “activity across adrenergic receptors α1a, α1B, α1D, α2A” value [4] was 63-100%. It also gave a brain/plasma ([5]; 1 hr after 10 mg/kg ip dose) of 1.3, a brain/plasma ([5]; 1 hr after 30 mg/kg ip dose) of 1.6 and a solubility at 18 h ([6]; 1x PBS, pH 7.4, aqueous buffer, kinetic from dmso stock, read-out: Aqueous Solubility in 1x PBS, pH 7.4) of 0.45 µg/mL. The “Aqueous Solubility in 1x PBS, pH 7.4” value ([6]; 1x PBS, pH 7.4, molar units) was 1.1 μM, the “Aqueous Solubility in pION's buffer” value ([6]; pH 6.2) was 9.0 μg/mL and the solubility at 18 h ([6]; pH 7.4, molar units, read-out: Aqueous Solubility in pION's buffer) was 1.2 µM. For the same compound, the solubility at 18 h ([6]; pION's buffer, aqueous buffer, kinetic from dmso stock, pH 5.0, molar units, read-out: Aqueous Solubility in pION's buffer) was greater than 297 µM, the solubility at 18 h ([6]; pION's buffer, aqueous buffer, kinetic from dmso stock, pH 5.0, read-out: Aqueous Solubility in pION's buffer) was greater than 125 µg/mL and the solubility at 18 h ([6]; pION's buffer, pH 7.4, aqueous buffer, kinetic from dmso stock, read-out: Aqueous Solubility in pION's buffer) was 0.52 µg/mL. For the same compound, the “NTR1 Ca2+ Flux assay activity” value (NTR1) was “not active”.
